Source: ChEMBL document CHEMBL3870329, “Synthesis of peptide nucleic acids (PNA) with a crosslinking agent to RNA and effective inhibition of dicer” (Bioorg Med Chem Lett, 2016)
Calls of active or inactive are those of the source. No cut-off for these calls is given here.

Tests used:
Nucleic Acid [1] = test: Binding affinity to 5'-end FAM-tagged GACUCAAUCCCAAUCUGGUU RNA (unknown origin) assessed as induction of crosslinking by measuring heteroduplex formation at 4 uM measured after 24 hrs by bromophenol blue staining-based denaturing PAGE analysis relative to control; format: nucleic-acid assay
[2] = Binding affinity to 5'-end FAM-tagged GACTCAATCCCAATCTGGTT DNA (unknown origin) assessed as crosslinked adduct formation by MALDI-TOF MS analysis
unidentified [3] = test: Binding affinity to 5'-end FAM-tagged GACTCAATCCCAATCTGGTT DNA (unknown origin) assessed as melting temperature at 1.5 uM measured after 5 mins by UV spectrophotometry (reference value: 79.2 degC)
Nucleic Acid [4] = test: Binding affinity to 5'-end FAM-tagged GACACAAUCCCAAUCUGGUU RNA (unknown origin) assessed as induction of crosslinking by measuring heteroduplex formation at 4 uM measured after 24 hrs by bromophenol blue staining-based denaturing PAGE analysis relative to control; format: nucleic-acid assay
Nucleic Acid [5] = test: Binding affinity to 5'-end FAM-tagged GACCCAATCCCAATCTGGTT DNA (unknown origin) assessed as induction of crosslinking by measuring heteroduplex formation at 4 uM measured after 24 hrs by bromophenol blue staining-based denaturing PAGE analysis relative to control; format: nucleic-acid assay
Nucleic Acid [6] = test: Binding affinity to 5'-end FAM-tagged GACACAATCCCAATCTGGTT DNA (unknown origin) assessed as induction of crosslinking by measuring heteroduplex formation at 4 uM measured after 24 hrs by bromophenol blue staining-based denaturing PAGE analysis relative to control; format: nucleic-acid assay
Nucleic Acid [7] = test: Binding affinity to 5'-end FAM-tagged GACCCAAUCCCAAUCUGGUU RNA (unknown origin) assessed as induction of crosslinking by measuring heteroduplex formation at 4 uM measured after 24 hrs by bromophenol blue staining-based denaturing PAGE analysis relative to control; format: nucleic-acid assay
unidentified [8] = test: Binding affinity to 5'-end FAM-tagged GACUCAAUCCCAAUCUGGUU RNA (unknown origin) assessed as melting temperature at 1.5 uM measured after 5 mins by UV spectrophotometry (reference value: 82.2 degC)
Nucleic Acid [9] = test: Binding affinity to 5'-end FAM-tagged GACGCAAUCCCAAUCUGGUU RNA (unknown origin) assessed as induction of crosslinking by measuring heteroduplex formation at 4 uM measured after 24 hrs by bromophenol blue staining-based denaturing PAGE analysis relative to control; format: nucleic-acid assay
Nucleic Acid [10] = test: Binding affinity to 5'-end FAM-tagged GACGCAATCCCAATCTGGTT DNA (unknown origin) assessed as induction of crosslinking by measuring heteroduplex formation at 4 uM measured after 24 hrs by bromophenol blue staining-based denaturing PAGE analysis relative to control; format: nucleic-acid assay
Nucleic Acid [11] = test: Binding affinity to 5'-end FAM-tagged GACTCAATCCCAATCTGGTT DNA (unknown origin) assessed as induction of crosslinking by measuring heteroduplex formation at 4 uM measured after 24 hrs by bromophenol blue staining-based denaturing PAGE analysis relative to control; format: nucleic-acid assay
Nucleic Acid [12] = test: Binding affinity to synthetic 5'-FAM-labelled pre-miR-122 RNA site1 (unknown origin) assessed as human dicer-mediated digestion of pre-miR-122 RNA preincubated with RNA for 2 days followed by dicer addition measured after 2 hrs by denaturing PAGE analysis; format: nucleic-acid assay
Nucleic Acid [13] = test: Binding affinity to synthetic 5'-FAM-labelled pre-miR-122 RNA site1 (unknown origin) assessed as inhibition of human dicer-mediated digestion of pre-miR-122 RNA preincubated with RNA for 2 days followed by dicer addition measured after 2 hrs by denaturing PAGE analysis relative to control; format: nucleic-acid assay; conditions: concentration not given here
Nucleic Acid [14] = test: Binding affinity to synthetic 5'-fluorescein-labelled pre-miR-122 RNA site1 (unknown origin) assessed as heteroduplex formation at 4 uM measured after 48 hrs by non-denaturing PAGE analysis relative to control; format: nucleic-acid assay
Nucleic Acid [15] = test: Binding affinity to synthetic 5'-FAM-labelled pre-miR-122 RNA site1 (unknown origin) assessed as heteroduplex formation at 4 uM measured after 2 hrs by denaturing PAGE analysis relative to control; format: nucleic-acid assay
Nucleic Acid [16] = test: Binding affinity to synthetic 5'-FAM-labelled pre-miR-122 RNA site2 (unknown origin) assessed as heteroduplex formation at 4 uM measured after 2 hrs by denaturing PAGE analysis relative to control; format: nucleic-acid assay
Nucleic Acid [17] = test: Binding affinity to synthetic 5'-FAM-labelled pre-miR-122 RNA site2 (unknown origin) assessed as human dicer-mediated digestion of pre-miR-122 RNA preincubated with RNA for 2 days followed by dicer addition measured after 2 hrs by denaturing PAGE analysis; format: nucleic-acid assay
Nucleic Acid [18] = test: Binding affinity to synthetic 5'-FAM-labelled pre-miR-122 RNA site2 (unknown origin) assessed as inhibition of human dicer-mediated digestion of pre-miR-122 RNA preincubated with RNA for 2 days followed by dicer addition measured after 2 hrs by denaturing PAGE analysis relative to control; format: nucleic-acid assay; conditions: concentration not given here
Nucleic Acid [19] = test: Binding affinity to synthetic 5'-fluorescein-labelled pre-miR-122 RNA site2 (unknown origin) assessed as heteroduplex formation at 4 uM measured after 48 hrs by non-denaturing PAGE analysis relative to control; format: nucleic-acid assay
Nucleic Acid [20] = test: Binding affinity to synthetic 5'-FAM-labelled pre-miR-122 RNA site3 (unknown origin) assessed as heteroduplex formation at 4 uM measured after 2 hrs by denaturing PAGE analysis relative to control; format: nucleic-acid assay
Nucleic Acid [21] = test: Binding affinity to synthetic 5'-FAM-labelled pre-miR-122 RNA site3 (unknown origin) assessed as inhibition of human dicer-mediated digestion of pre-miR-122 RNA by measuring heteroduplex formation preincubated with RNA for 2 days followed by dicer addition measured after 2 hrs by denaturing PAGE analysis relative to control; format: nucleic-acid assay; conditions: concentration not given here
Nucleic Acid [22] = test: Binding affinity to synthetic 5'-fluorescein-labelled pre-miR-122 RNA site3 (unknown origin) assessed as heteroduplex formation at 4 uM measured after 48 hrs by non-denaturing PAGE analysis relative to control; format: nucleic-acid assay
Nucleic Acid [23] = test: Binding affinity to synthetic 5'-FAM-labelled pre-miR-122 RNA site3 (unknown origin) assessed as human dicer-mediated digestion of pre-miR-122 RNA preincubated with RNA for 2 days followed by dicer addition measured after 2 hrs by denaturing PAGE analysis; format: nucleic-acid assay
[24] = Binding affinity to 5'-end FAM-tagged GACCAAACCCAATCTGGTT DNA (unknown origin) assessed as change in melting temperature at 1.5 uM measured after 5 mins by UV spectrophotometry
[25] = Binding affinity to 5'-end FAM-tagged GACCAAGCCCAATCTGGTT DNA (unknown origin) assessed as change in melting temperature at 1.5 uM measured after 5 mins by UV spectrophotometry
[26] = Binding affinity to 5'-end FAM-tagged GACCAAUCCCAAUCUGGUU RNA (unknown origin) assessed as change in melting temperature at 1.5 uM measured after 5 mins by UV spectrophotometry
[27] = Binding affinity to 5'-end FAM-tagged GACCAATCCCAATCTGGTT DNA (unknown origin) assessed as change in melting temperature at 1.5 uM measured after 5 mins by UV spectrophotometry
[28] = Binding affinity to 5'-end FAM-tagged GACCAACCCCAATCTGGTT DNA (unknown origin) assessed as change in melting temperature at 1.5 uM measured after 5 mins by UV spectrophotometry
[29] = Binding affinity to 5'-end FAM-tagged GACCAAGCCCAAUCUGGUU RNA (unknown origin) assessed as change in melting temperature at 1.5 uM measured after 5 mins by UV spectrophotometry
[30] = Binding affinity to 5'-end FAM-tagged GACCAAACCCAAUCUGGUU RNA (unknown origin) assessed as change in melting temperature at 1.5 uM measured after 5 mins by UV spectrophotometry
[31] = Binding affinity to 5'-end FAM-tagged GACCAACCCCAAUCUGGUU RNA (unknown origin) assessed as change in melting temperature at 1.5 uM measured after 5 mins by UV spectrophotometry

C=Cc1nc(N)nc2c1ncn2CC(=O)N(CCNC(C)=O)CC(=O)NCCN(CC(=O)NCCN(CC(=O)NCCN(CC(=O)NCCN(CC(=O)NCCN(CC(=O)NCCN(CC(=O)NCCN(CC(=O)NCCN(CC(=O)NCCN(CC(=O)NCCN(CC(=O)NCCN(CC(=O)N[C@@H](CCCNC(=N)N)C(=O)N[C@@H](CCCNC(=N)N)C(=O)NCC(N)=O)C(=O)Cn1cnc2c(=O)[nH]c(N)nc21)C(=O)Cn1cnc2c(N)ncnc21)C(=O)Cn1cc(C)c(=O)[nH]c1=O)C(=O)Cn1cc(C)c(=O)[nH]c1=O)C(=O)Cn1cnc2c(=O)[nH]c(N)nc21)C(=O)Cn1cnc2c(=O)[nH]c(N)nc21)C(=O)Cn1cnc2c(=O)[nH]c(N)nc21)C(=O)Cn1cnc2c(N)ncnc21)C(=O)Cn1cc(C)c(=O)[nH]c1=O)C(=O)Cn1cc(C)c(=O)[nH]c1=O)C(=O)Cn1cnc2c(=O)[nH]c(N)nc21
Activity (Nucleic Acid [1]): 62% | Activity [2]: Active | Tm (unidentified [3]): 80.3 °C | Activity (Nucleic Acid [4]): 0% | Activity (Nucleic Acid [5]): 2% | Activity (Nucleic Acid [6]): 1% | Activity (Nucleic Acid [7]): 2% | Tm (unidentified [8]): 84.5 °C | Activity (Nucleic Acid [9]): 2% | Activity (Nucleic Acid [10]): 3% | Activity (Nucleic Acid [11]): 52%

C=Cc1nc(N)nc2c1ncn2CC(=O)N(CCN)CC(=O)NCCN(CC(=O)NCCN(CC(=O)NCCN(CC(=O)NCCN(CC(=O)NCCN(CC(=O)NCCN(CC(=O)NCCN(CC(=O)NCCN(CC(=O)NCCN(CC(=O)NCCN(CC(=O)NCCN(CC(=O)NCCN(CC(=O)N[C@@H](CCCNC(=N)N)C(=O)O)C(=O)Cn1cnc2c(N)ncnc21)C(=O)Cn1cc(C)c(=O)[nH]c1=O)C(=O)Cn1cnc2c(N)ncnc21)C(=O)Cn1cnc2c(=O)[nH]c(N)nc21)C(=O)Cn1cc(C)c(=O)[nH]c1=O)C(=O)Cn1cc(C)c(=O)[nH]c1=O)C(=O)Cn1cc(C)c(=O)[nH]c1=O)C(=O)Cn1cnc2c(=O)[nH]c(N)nc21)C(=O)Cn1ccc(N)nc1=O)C(=O)Cn1cnc2c(=O)[nH]c(N)nc21)C(=O)Cn1cnc2c(=O)[nH]c(N)nc21)C(=O)Cn1cc(C)c(=O)[nH]c1=O
Activity (Nucleic Acid [12]): 90% | inhibition (Nucleic Acid [13]): 10% | Activity (Nucleic Acid [14]): 10% | Activity (Nucleic Acid [15]): 8%

C=Cc1nc(N)nc2c1ncn2CC(=O)N(CCN)CC(=O)NCCN(CC(=O)NCCN(CC(=O)NCCN(CC(=O)NCCN(CC(=O)NCCN(CC(=O)NCCN(CC(=O)NCCN(CC(=O)NCCN(CC(=O)NCCN(CC(=O)NCCN(CC(=O)NCCN(CC(=O)NCCN(CC(=O)N[C@@H](CCCNC(=N)N)C(=O)O)C(=O)Cn1ccc(N)nc1=O)C(=O)Cn1ccc(N)nc1=O)C(=O)Cn1cc(C)c(=O)[nH]c1=O)C(=O)Cn1ccc(N)nc1=O)C(=O)Cn1cnc2c(N)ncnc21)C(=O)Cn1ccc(N)nc1=O)C(=O)Cn1cnc2c(N)ncnc21)C(=O)Cn1ccc(N)nc1=O)C(=O)Cn1cc(C)c(=O)[nH]c1=O)C(=O)Cn1cnc2c(=O)[nH]c(N)nc21)C(=O)Cn1cc(C)c(=O)[nH]c1=O)C(=O)Cn1cc(C)c(=O)[nH]c1=O
Activity (Nucleic Acid [16]): 15% | Activity (Nucleic Acid [17]): 59% | inhibition (Nucleic Acid [18]): 41% | Activity (Nucleic Acid [19]): 41%

C=Cc1nc(N)nc2c1ncn2CC(=O)N(CCN)CC(=O)NCCN(CC(=O)NCCN(CC(=O)NCCN(CC(=O)NCCN(CC(=O)NCCN(CC(=O)NCCN(CC(=O)NCCN(CC(=O)NCCN(CC(=O)NCCN(CC(=O)NCCN(CC(=O)NCCN(CC(=O)NCCN(CC(=O)N[C@@H](CCCNC(=N)N)C(=O)O)C(=O)Cn1ccc(N)nc1=O)C(=O)Cn1cnc2c(N)ncnc21)C(=O)Cn1ccc(N)nc1=O)C(=O)Cn1cnc2c(N)ncnc21)C(=O)Cn1cnc2c(=O)[nH]c(N)nc21)C(=O)Cn1cnc2c(N)ncnc21)C(=O)Cn1cc(C)c(=O)[nH]c1=O)C(=O)Cn1cc(C)c(=O)[nH]c1=O)C(=O)Cn1cc(C)c(=O)[nH]c1=O)C(=O)Cn1cnc2c(=O)[nH]c(N)nc21)C(=O)Cn1cnc2c(N)ncnc21)C(=O)Cn1cc(C)c(=O)[nH]c1=O
Activity (Nucleic Acid [20]): 72% | inhibition (Nucleic Acid [21]): 76% | Activity (Nucleic Acid [22]): 85% | Activity (Nucleic Acid [23]): 24%

CSCCc1nc(N)nc2c1ncn2CC(=O)N(CCNC(=O)CN(CCNC(=O)CN(CCNC(=O)CN(CCNC(C)=O)C(=O)Cn1cnc2c(=O)[nH]c(N)nc21)C(=O)Cn1cc(C)c(=O)[nH]c1=O)C(=O)Cn1cc(C)c(=O)[nH]c1=O)CC(=O)NCCN(CC(=O)NCCN(CC(=O)NCCN(CC(=O)NCCN(CC(=O)NCCN(CC(=O)NCCN(CC(=O)NCCN(CC(=O)N[C@@H](CCCNC(=N)N)C(=O)N[C@@H](CCCNC(=N)N)C(=O)NCC(N)=O)C(=O)Cn1cnc2c(=O)[nH]c(N)nc21)C(=O)Cn1cnc2c(N)ncnc21)C(=O)Cn1cc(C)c(=O)[nH]c1=O)C(=O)Cn1cc(C)c(=O)[nH]c1=O)C(=O)Cn1cnc2c(=O)[nH]c(N)nc21)C(=O)Cn1cnc2c(=O)[nH]c(N)nc21)C(=O)Cn1cnc2c(=O)[nH]c(N)nc21
ΔTm [24]: -10.6 °C | ΔTm [25]: -11 °C | ΔTm [26]: -5.9 °C | ΔTm [27]: -9.9 °C | ΔTm [28]: -10.3 °C | ΔTm [29]: -11 °C | ΔTm [30]: -10.1 °C | ΔTm [31]: -6.1 °C
